# Laboratory results: article doi:10.1101/2025.04.10.648262, “Time-resolved phenotyping at subcellular resolution reveals shared principles and key trade-offs across antimicrobial peptide activities” (bioRxiv, 2026)
# Like-named read-outs stand apart in the source and are kept apart here. Bridge positions count the residues as written; N and C are the ends. Ends that are not written are not given here.
# Experiments:
# Format in all cases: cell-based, Escherichia coli
# E. coli ATCC 25922 = system: E. coli ATCC 25922
# Experimental: Strain ATCC 25922GFP (ATCC, Virginia, USA), which carries a GFP-expressing plasmid, was selected for biofilm experiments. The strain’s ability to form biofilms was first verified at 37°C using Congo Red staining on agar plate containing M9gluCAAT. Congo Red dye binds curli, a major component of the biofilm extracellular matrix. Strain ATCC 25922 (lacking the GFP-expressing plasmid) was used for MIC determination (to avoid interference from the presence of ampicillin required to maintain the plasmid) following the standard growth protocol described above.
# (§1) To determine the minimal inhibitory concentration (MIC) of the selected AMPs against either MG1655 or ATCC 25922 E. coli strains, exponentially growing cells were diluted in fresh medium to an OD = 10^−6 (~500 cells/mL) and mixed 50:50 with titrated AMP concentrations (which were chosen to be over a range that included the MIC) in a 96-well plate (flat bottom with low evaporation lid, 3595, Corning, Arizona, USA). A final OD of 5 × 10^−7 corresponds to ~250 cells/mL. OD curves were sampled every 5 min for a total of 48 h using a microplate reader (BioTek Synergy 2, Agilent Technologies Inc., California, USA). Raw data were exported as a text file and analysed using a custom-written Python script (microplate_reader_analysis.py). To measure maximum growth rates, the log(OD) was fitted using a linear regression over a 12-point moving window (60 min), which provides the instantaneous growth rate (log(OD)/h), from which the global maximum was computed. The MIC was defined as the minimum AMP concentration for which the maximum growth rate was < 0.2 log(OD)/h within the first 20 h of incubation. Each MIC experiment was performed independently at least three times (with at least two technical replicates each), and the mode across all replicates was taken as the final MIC; in the rare cases of a tie, an additional replicate was performed, which was sufficient to resolve it.
# E. coli (MG1655) = conditions: MG1655, 20 h
# Experimental: For all experiments and E. coli strains, cells were grown in a medium (M9gluCAAT) with M9 salts (33.7 mM Na2HPO4, 22mM KH2PO4, 8.55 mM NaCl, 9.35 mM NH4Cl), 0.2% (w/v) glucose, 0.4% (w/v) casamino acids, 1 mM MgSO4, 0.3 mM CaCl2, 1 μg/mL thiamine, and trace elements (13.4 mM ethylene-diamine-tetra-acetic-acid (EDTA), 3.1 mM FeCl3-6H2O, 0.62 mM ZnCl2, 76 μM CuCl2-2H2O, 42 μM CoCl2-2H2O, 162 μM H3BO3, 8.1 μM MnCl2-4H2O). Prior to every experiment, cells were first inoculated into M9gluCAAT and grown to stationary phase at 37°C. For all assays except the biofilm experiments, the culture was diluted to 1/10,000 or more in fresh medium and grown at 37°C until it reached an optical density at 600 nm (OD) of 0.2–0.4. For the biofilm experiments, cells were grown in M9gluCAAT supplemented with 100 μg/mL ampicillin to maintain the GFP-expressing plasmid. The overnight stationary-phase cultures were then diluted into the same medium to an OD of 0.015. See below for details on biofilm growth.
# Except for the biofilm experiments, the strains used in this study were derived from MG1655 (ATCC 47076), which was used to estimate the minimum inhibitory concentration (MIC) for all the studied peptides (or peptoids) using a microplate reader (Figure 1A). To detect the timing of outer and inner membrane permeabilization to proteins, strain CJW7845 was constructed to carry two freely diffusing fluorescent proteins: mScarlet-I in the periplasm and mTagBFP2 in the cytoplasm. Construction of CJW7845 was done by transforming pBAD-mTagBFP2 plasmid (Addgene #34632, a gift from Vladislav Verkhusha; ([Subach et al., 2011])) into an E. coli strain expressing a periplasmic mScarlet-I reporter ([Cañas-Duarte 2021]), as previously described ([Chung et al., 1989]). Transformants were restreaked on fresh selection plates and confirmed via microscopy.
# as §1
# E. coli strain (CJW7845) = assay: Time-lapse single-cell phenotyping of inner/outer membrane permeabilization to proteins and growth arrest in microwells; set-up: key to Class (timing of growth arrest relative to IM permeabilization to proteins): Class I AMPs and PMs cause growth arrest predominantly associated with inner membrane (IM) permeabilization; class II compounds inhibit growth without substantial IM permeabilization; conditions: for OM-permeabilized cells among IM-permeabilized cells: CJW7845, during the experiment
# Experimental: For experiments with PDMS microwells, cells were allowed to grow for ~30 min in the temperature-controlled enclosure prior to imaging. A 10X concentrated AMP solution was spiked in (at 1/10 the volume of the well) and mixed well by pipetting after ~20 min from the start of the image acquisition, without interrupting the timelapse sequence. When the uptake of SYTOX Green was monitored, SYTOX Green was included in the AMP solution and spiked in during the experiment to obtain a final concentration of SYTOX Green of 50 nM in the well. This allowed us to monitor healthy cell growth prior to AMP treatment, to rapidly set the desired AMP (or SYTOX Green) concentration from one frame to the next (unlike for flow-controlled injection systems), and to resolve the AMP-induced phenotype in real time. The current design allows for testing up to four independent conditions in parallel.
# To analyse the single-cell experiments in microwells, OmniSegger software (https://github.com/tlo-bot/omnisegger), which combines SuperSegger MATLAB-based suite ([Stylianidou et al., 2016]) for cell analysis with Omnipose segmentation ([Cutler et al., 2022]), was used to first process the microscopy images by performing drift correction, cell segmentation, and cell linking. Given that AMP-treated cells can display extreme phenotypes, such as exceedingly bright and/or heterogeneous phase contrast signal (likely a result of the widely changing intracellular density upon AMP treatment) and that the software’s pre-trained model bact_phase_omni ([Cutler et al, 2022]) tended to split cells before cell division was completed, a new Omnipose model was trained from scratch starting from bact_phase_omni-generated masks that were further corrected and curated using custom-made Python scripts (screening_good_bad.py and generate_training_dataset.py). Details on the Omnipose model retraining can be found in a previous publication ([Thappeta et al., 2025]). The final model (omnipose_phase_microwells_model) and corresponding training datasets are available at https://github.com/JacobsWagnerLab/published/tree/master/Fragasso_et_al_2025 and BioImage Archive (accession number: S-BIAD1823), respectively.
# MATLAB files of the linked cell trajectories output from OmniSegger were then imported, background subtracted using background_subtraction.py, which was adapted from a previous study ([Papagiannakis et al., 2025]), and converted to Python data structures (import_processing_code.py), from which cell features such as cell area, nucleoid area, mean fluorescence intensity, etc., were extracted for each cell at each frame. The exported dataframes were further processed to estimate instantaneous growth rates and were run through a series of functions to perform curation based on cell areas and instantaneous growth rates over time (post_processing_curation_functions.py). […] Represented data points were pooled from multiple replicates.
# Analysis of strain CJW7845 proceeded by extracting the timings of permeabilization of the outer and inner membranes based on the mean fluorescence intensities of mScarlet-I and/or mTagBFP2 fluorescent proteins (using function get_permeabilization_time.py), cell growth arrest, and the initiation time of growth inhibition. To obtain accurate timings underlying membrane permeabilization events, information from both the signal intensity itself as well as its derivative were combined, which enabled us to accurately resolve the relevant changes in fluorescent protein signal beyond the intrinsic high-frequency noise and low-frequency photobleaching. Inner membrane permeabilization to proteins can result in two possible phenotypes when simultaneously monitoring freely diffusing periplasmic and cytoplasmic probes, depending on which membrane (outer or inner) becomes permeabilized first. When the outer membrane is first permeabilized, mScarlet-I signal is lost first, followed by mTagBFP2 when the inner membrane becomes also permeabilized. […]
# [1] = 2X MIC, CJW7845, M9gluCAAT, 37°C, time-lapse microscopy
Compound,MIC (mode MIC) (E. coli (MG1655)) [µM],"MIC (mode MIC) (E. coli ATCC 25922; ATCC 25922, 20 h) [µM]",also measured
"CC[C@H](C)[C@H](N)C(=O)N[C@@H](CC(C)C)C(=O)N1CCC[C@H]1C(=O)N[C@@H](Cc1c[nH]c2ccccc12)C(=O)N[C@@H](CCCCN)C(=O)N[C@@H](Cc1c[nH]c2ccccc12)C(=O)N1CCC[C@H]1C(=O)N[C@@H](Cc1c[nH]c2ccccc12)C(=O)N[C@@H](Cc1c[nH]c2ccccc12)C(=O)N1CCC[C@H]1C(=O)N[C@@H](Cc1c[nH]c2ccccc12)C(=O)N[C@@H](CCCNC(=N)N)C(=O)N[C@@H](CCCNC(=N)N)C(N)=O [Indo, indolicidin]",12.5,–,"MIC (mode MIC) (E. coli ATCC 25922; E. coli ATCC 25922, M9gluCAAT, 37°C, 20 h, mode across four biological replicates): 6.2 µM"
"RRIRPRPPRLPRPRPRPLPFPRPGPRPIPRPLPFP [Bac7, bactenecin-7]",0.6,0.6,–
RRIRFRPPYLPRPGRRPRFPPPFPIPRIPRIP [Tur1A],1,1,–
"GIINTLQKYYCRVRGGRCAVLSCLPKEEQIGKCSTRGRKCCRRKK (disulfide 11-40, 18-33, 23-41 (inferred)) [HBD-3, human β-defensin 3]",20,–,Class (timing of growth arrest relative to IM permeabilization to proteins) (E. coli strain (CJW7845); [1]): I; Type (relative timing of OM and IM permeabilization) (E. coli strain (CJW7845); [1]): B (type B AMPs and PMs permeabilize the IM well before (>10 min) the OM); OM-permeabilized cells among IM-permeabilized cells (E. coli strain (CJW7845); 2X MIC): 7/82
"KWKLFKKIEKVGQNIRDGIIKAGPAVAVVGQATQIAK-NH2 [CecA, cecropin A]",0.5,0.5,–
"CC(C)C[C@H](NC(=O)[C@H](CCCNC(=N)N)NC(=O)CNC(=O)CNC(=O)[C@@H](N)CCCNC(=N)N)C(=O)N[C@H]1CSSC[C@@H](C(=O)N[C@H](C(=O)NCC(=O)N[C@@H](CCCNC(=N)N)C(N)=O)C(C)C)NC(=O)[C@H](C(C)C)NC(=O)[C@@H]2CSSC[C@H](NC(=O)[C@H](Cc3ccc(O)cc3)NC1=O)C(=O)N[C@@H](CCCNC(=N)N)C(=O)N[C@@H](CCCNC(=N)N)C(=O)N[C@@H](CCCNC(=N)N)C(=O)N[C@@H](Cc1ccccc1)C(=O)N2 [PG-1, protegrin-1]",–,–,"Class (timing of growth arrest relative to IM permeabilization to proteins) (E. coli strain (CJW7845); [1]): I; OM-permeabilized cells among IM-permeabilized cells (E. coli strain (CJW7845); 2X MIC): 163/163; OM-permeabilized cells (out of all IM-permeabilized cells) (E. coli strain (CJW7845); 10X MIC, CJW7845): 48/59"
RRRPRPPYLPRPRPPPFFPPRLPPRIPPGFPPRFPPRFP-NH2 [PR-39],2,1,–
